Measurements from patent US9573954B2, “Pyrazolopyrimidine compounds” (University Health Network, priority 2012, dated 2017).
pIC50: −log10 of the molar value.

The compounds below were run on breast cancer cells (MDA-MB-468) (assay: Cancer cell line growth inhibition, Sulforhodamine B assay, MDA-MB-468). Settings: Homo sapiens, MDA-MB-468, MDA-MB-468 breast cancer cell line; read-out: Cancer Cell Line GI50 Range MDA-MB-468.
Format: cell-based
How it was run: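 Sulforhodamine B staining (TCA-fixed, read at 570 nm) estimates cell mass after 5-day compound treatment of MDA-MB-468 cells, final concentrations 10 nM to 50 μM in 10% FBS DMEM. GI50 derived from growth inhibition versus DMSO controls.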

| Structure (SMILES) | GI50 [µM] |
| --- | --- |
| Cc1cc(-c2cnn3c(NCCN4CCN(C)CC4)cc(Oc4cccc(F)c4)nc23)ccc1C(=O)NC1CC1 [Example C178] | ≤ 0.1 |
| Cc1cc(-c2cnn3c(NCC4CCOCC4)cc(NCC4(CO)CC4)nc23)ccc1C(=O)NC1CC1 [Example C113] | 0.1 to 0.5 |
| Cc1cc(-c2cnn3c(NCC4CC4)cc(NC4(CO)CCCC4)nc23)ccc1C(=O)NC1CC1 [Example C148] | 0.1 to 0.5 |
| Cc1cc(-c2cnn3c(NCC4(CO)CCOCC4)cc(Oc4cccnc4)nc23)ccc1C(=O)NC1CC1 [Example C99] | > 0.5 |
| Cc1cc(-c2cnn3c(NCC4CCOCC4)cc(NCc4cccnc4)nc23)ccc1C(=O)NC1CC1 [Example C74] | 0.1 to 0.5 |
| Cc1cc(-c2cnn3c(NCCCn4ccnc4)cc(Oc4ccccc4)nc23)ccc1C(=O)NC1CC1 [Example C61] | ≤ 0.1 |
| Cc1cc(-c2cnn3c(NCC4CCOCC4)cc(N[C@H](CO)C4CCCCC4)nc23)ccc1C(=O)NC1CC1 [Example C163] | 0.1 to 0.5 |
| COC[C@@H](Nc1cc(NCC2CCOCC2)n2ncc(-c3ccc(C(=O)NC4CC4)c(C)c3)c2n1)C(C)C [Example C104] | 0.1 to 0.5 |
| Cc1cc(-c2cnn3c(NCC4CCOCC4)nc(NC4CCOCC4)nc23)ccc1C(=O)NC1CC1 [Example C23] | > 0.5 |
| Cc1cc(-c2cnn3c(NCC4(O)CCOCC4)cc(NC4CCCC4)nc23)ccc1C(=O)NC1CC1 [Example C95] | > 0.5 |
| CC[C@H](Nc1cc(NCC2CCOCC2)n2ncc(-c3ccc(C(=O)NC4CC4)c(C)c3)c2n1)C(C)(C)O [Example C127] | 0.1 to 0.5 |
| Cc1cc(-c2cnn3c(NCC4(F)CCN(C)CC4)cc(OC4CCCC4)nc23)ccc1C(=O)NC1CC1 [Example C174] | > 0.5 |
| Cc1cc(-c2cnn3c(NCCCn4ccnc4)cc(N[C@H]4CCCC[C@H]4O)nc23)ccc1C(=O)NC1CC1 [Example C132] | 0.1 to 0.5 |

Same assay, conditions: MDA-MB-468 breast cancer cell line; read-out: Cancer Cell Line GI50 Range MDA-MB-468

| Structure (SMILES) | GI50 [µM] |
| --- | --- |
| Cc1cc(-c2cnn3c(NC[C@H]4CCCO4)cc(NC4CCCC4)nc23)ccc1C(=O)NC1CC1 [Example C72] | ≤ 0.1 |

What follows are compounds tested on colon cancer cells (HCT116) (assay: Cancer cell line growth inhibition, Sulforhodamine B assay, HCT116). Settings: HCT116 colon cancer cell line; read-out: Cancer Cell Line GI50 Range HCT116.
Format: cell-based
How it was run: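 GI50 is calculated from growth inhibition relative to DMSO controls, using TCA-fixed, SRB-stained protein mass read at 570 nm. Compound, 10 nM–50 μM final in 10% FBS DMEM, was applied for 5 days to HCT116 cells that had been plated 24 h before at 1000–4000/well.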

| Structure (SMILES) | GI50 [µM] |
| --- | --- |
| Cc1cc(-c2cnn3c(NC[C@H]4CCCO4)cc(NC4CCCC4)nc23)ccc1C(=O)NC1CC1 [Example C72] | ≤ 0.1 |

Same assay, conditions: Homo sapiens, HCT-116, HCT116 colon cancer cell line; read-out: Cancer Cell Line GI50 Range HCT116

| Structure (SMILES) | GI50 [µM] |
| --- | --- |
| Cc1cc(-c2cnn3c(NCCN4CCN(C)CC4)cc(Oc4cccc(F)c4)nc23)ccc1C(=O)NC1CC1 [Example C178] | ≤ 0.1 |
| Cc1cc(-c2cnn3c(NCC4CCOCC4)cc(NCC4(CO)CC4)nc23)ccc1C(=O)NC1CC1 [Example C113] | 0.1 to 0.5 |
| Cc1cc(-c2cnn3c(NCC4CC4)cc(NC4(CO)CCCC4)nc23)ccc1C(=O)NC1CC1 [Example C148] | 0.1 to 0.5 |
| Cc1cc(-c2cnn3c(NCC4(CO)CCOCC4)cc(Oc4cccnc4)nc23)ccc1C(=O)NC1CC1 [Example C99] | 0.1 to 0.5 |
| Cc1cc(-c2cnn3c(NCC4CCOCC4)cc(NCc4cccnc4)nc23)ccc1C(=O)NC1CC1 [Example C74] | 0.1 to 0.5 |
| Cc1cc(-c2cnn3c(NCCCn4ccnc4)cc(Oc4ccccc4)nc23)ccc1C(=O)NC1CC1 [Example C61] | ≤ 0.1 |
| Cc1cc(-c2cnn3c(NCC4CCOCC4)cc(N[C@H](CO)C4CCCCC4)nc23)ccc1C(=O)NC1CC1 [Example C163] | ≤ 0.1 |
| COC[C@@H](Nc1cc(NCC2CCOCC2)n2ncc(-c3ccc(C(=O)NC4CC4)c(C)c3)c2n1)C(C)C [Example C104] | ≤ 0.1 |
| Cc1cc(-c2cnn3c(NCC4CCOCC4)nc(NC4CCOCC4)nc23)ccc1C(=O)NC1CC1 [Example C23] | 0.1 to 0.5 |
| Cc1cc(-c2cnn3c(NCC4(O)CCOCC4)cc(NC4CCCC4)nc23)ccc1C(=O)NC1CC1 [Example C95] | 0.1 to 0.5 |
| CC[C@H](Nc1cc(NCC2CCOCC2)n2ncc(-c3ccc(C(=O)NC4CC4)c(C)c3)c2n1)C(C)(C)O [Example C127] | ≤ 0.1 |
| Cc1cc(-c2cnn3c(NCC4(F)CCN(C)CC4)cc(OC4CCCC4)nc23)ccc1C(=O)NC1CC1 [Example C174] | 0.1 to 0.5 |
| Cc1cc(-c2cnn3c(NCCCn4ccnc4)cc(N[C@H]4CCCC[C@H]4O)nc23)ccc1C(=O)NC1CC1 [Example C132] | > 0.5 |

These compounds were tested against T1, human TTK (Homo sapiens, UniProt P33981) (assay: TTK inhibition assay (indirect ELISA)). Settings: 16 μM ATP (Sigma cat# A7699); read-out: TTK IC50 Range (denoted with an asterisk).
T1 construct: Active TTK was purchased from Invitrogen as an amino terminal GST fusion of full length human TTK; purchased Invitrogen
T1 sequence (P33981 1-857): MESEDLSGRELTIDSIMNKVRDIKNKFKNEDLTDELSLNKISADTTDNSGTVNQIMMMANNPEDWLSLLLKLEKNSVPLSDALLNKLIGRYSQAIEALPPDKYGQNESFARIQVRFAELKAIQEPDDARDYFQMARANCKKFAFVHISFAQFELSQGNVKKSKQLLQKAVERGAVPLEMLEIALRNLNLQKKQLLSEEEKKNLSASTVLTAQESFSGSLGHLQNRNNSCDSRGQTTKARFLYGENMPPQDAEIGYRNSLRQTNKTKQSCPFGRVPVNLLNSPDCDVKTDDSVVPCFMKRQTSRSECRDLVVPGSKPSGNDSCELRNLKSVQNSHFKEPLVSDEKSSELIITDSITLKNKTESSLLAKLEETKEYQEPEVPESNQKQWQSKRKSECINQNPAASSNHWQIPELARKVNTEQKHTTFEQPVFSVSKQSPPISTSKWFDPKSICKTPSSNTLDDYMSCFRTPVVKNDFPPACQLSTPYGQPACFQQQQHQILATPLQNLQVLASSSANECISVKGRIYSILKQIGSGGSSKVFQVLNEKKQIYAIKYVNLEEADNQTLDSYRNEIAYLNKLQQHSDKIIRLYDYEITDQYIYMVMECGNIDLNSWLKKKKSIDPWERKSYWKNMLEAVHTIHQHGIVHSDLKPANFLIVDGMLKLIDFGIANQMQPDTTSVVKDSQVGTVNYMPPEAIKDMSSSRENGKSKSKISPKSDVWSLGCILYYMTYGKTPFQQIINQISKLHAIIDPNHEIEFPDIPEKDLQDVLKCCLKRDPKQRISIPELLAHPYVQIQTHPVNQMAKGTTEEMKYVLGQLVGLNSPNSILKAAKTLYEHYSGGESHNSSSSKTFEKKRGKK
Format: biochemical
How it was run: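 Activity detected by indirect ELISA after compounds sat with full-length GST-TTK for 5 min prior to starting the reaction with ATP. IC50 came from a four-parameter logistic curve of % inhibition, calculated against background and uninhibited control wells.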

| Structure (SMILES) | pIC50 |
| --- | --- |
| Cc1cc(-c2cnn3c(NCC4CCOCC4)nc(NC4CCOCC4)nc23)ccc1C(=O)NC1CC1 [Example C23] | > 7.00 |

Same assay, conditions: 100 μM ATP; read-out: TTK IC50 Range

| Structure (SMILES) | pIC50 |
| --- | --- |
| Cc1cc(-c2cnn3c(NC[C@H]4CCCO4)cc(NC4CCCC4)nc23)ccc1C(=O)NC1CC1 [Example C72] | > 7.00 |
| Cc1cc(-c2cnn3c(NCCN4CCN(C)CC4)cc(Oc4cccc(F)c4)nc23)ccc1C(=O)NC1CC1 [Example C178] | > 7.00 |
| Cc1cc(-c2cnn3c(NCC4CCOCC4)cc(NCC4(CO)CC4)nc23)ccc1C(=O)NC1CC1 [Example C113] | > 7.00 |
| Cc1cc(-c2cnn3c(NCC4CC4)cc(NC4(CO)CCCC4)nc23)ccc1C(=O)NC1CC1 [Example C148] | > 7.00 |
| Cc1cc(-c2cnn3c(NCC4(CO)CCOCC4)cc(Oc4cccnc4)nc23)ccc1C(=O)NC1CC1 [Example C99] | > 7.00 |
| Cc1cc(-c2cnn3c(NCC4CCOCC4)cc(NCc4cccnc4)nc23)ccc1C(=O)NC1CC1 [Example C74] | > 7.00 |
| Cc1cc(-c2cnn3c(NCCCn4ccnc4)cc(Oc4ccccc4)nc23)ccc1C(=O)NC1CC1 [Example C61] | > 7.00 |
| Cc1cc(-c2cnn3c(NCC4CCOCC4)cc(N[C@H](CO)C4CCCCC4)nc23)ccc1C(=O)NC1CC1 [Example C163] | > 7.00 |
| COC[C@@H](Nc1cc(NCC2CCOCC2)n2ncc(-c3ccc(C(=O)NC4CC4)c(C)c3)c2n1)C(C)C [Example C104] | > 7.00 |
| Cc1cc(-c2cnn3c(NCC4(O)CCOCC4)cc(NC4CCCC4)nc23)ccc1C(=O)NC1CC1 [Example C95] | > 7.00 |
| CC[C@H](Nc1cc(NCC2CCOCC2)n2ncc(-c3ccc(C(=O)NC4CC4)c(C)c3)c2n1)C(C)(C)O [Example C127] | > 7.00 |
| Cc1cc(-c2cnn3c(NCC4(F)CCN(C)CC4)cc(OC4CCCC4)nc23)ccc1C(=O)NC1CC1 [Example C174] | > 7.00 |
| Cc1cc(-c2cnn3c(NCCCn4ccnc4)cc(N[C@H]4CCCC[C@H]4O)nc23)ccc1C(=O)NC1CC1 [Example C132] | > 7.00 |

What follows are compounds tested on ovarian cancer cells (OVCAR-3) (assay: Cancer cell line growth inhibition, Sulforhodamine B assay, OVCAR-3). Settings: Homo sapiens, OVCAR-3, OVCAR-3 ovarian cancer cell line; read-out: Cancer Cell Line GI50 Range OVCAR-3.
Format: cell-based
How it was run: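 OVCAR-3 cells were seeded 24 h before compound addition, then exposed for 5 days to final concentrations of 10 nM to 50 μM in DMEM with 10% FBS. Growth was measured by TCA fixation and sulforhodamine B staining with absorbance at 570 nm. Inhibition was relative to DMSO-only cells, and GI50 came from curve fitting.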

| Structure (SMILES) | GI50 [µM] |
| --- | --- |
| Cc1cc(-c2cnn3c(NCCN4CCN(C)CC4)cc(Oc4cccc(F)c4)nc23)ccc1C(=O)NC1CC1 [Example C178] | 0.1 to 0.5 |
| Cc1cc(-c2cnn3c(NCC4CCOCC4)cc(NCC4(CO)CC4)nc23)ccc1C(=O)NC1CC1 [Example C113] | 0.1 to 0.5 |
| Cc1cc(-c2cnn3c(NCC4CC4)cc(NC4(CO)CCCC4)nc23)ccc1C(=O)NC1CC1 [Example C148] | > 0.5 |
| Cc1cc(-c2cnn3c(NCC4(CO)CCOCC4)cc(Oc4cccnc4)nc23)ccc1C(=O)NC1CC1 [Example C99] | > 0.5 |
| Cc1cc(-c2cnn3c(NCC4CCOCC4)cc(NCc4cccnc4)nc23)ccc1C(=O)NC1CC1 [Example C74] | > 0.5 |
| Cc1cc(-c2cnn3c(NCCCn4ccnc4)cc(Oc4ccccc4)nc23)ccc1C(=O)NC1CC1 [Example C61] | ≤ 0.1 |
| Cc1cc(-c2cnn3c(NCC4CCOCC4)cc(N[C@H](CO)C4CCCCC4)nc23)ccc1C(=O)NC1CC1 [Example C163] | 0.1 to 0.5 |
| COC[C@@H](Nc1cc(NCC2CCOCC2)n2ncc(-c3ccc(C(=O)NC4CC4)c(C)c3)c2n1)C(C)C [Example C104] | 0.1 to 0.5 |
| Cc1cc(-c2cnn3c(NCC4CCOCC4)nc(NC4CCOCC4)nc23)ccc1C(=O)NC1CC1 [Example C23] | > 0.5 |
| Cc1cc(-c2cnn3c(NCC4(O)CCOCC4)cc(NC4CCCC4)nc23)ccc1C(=O)NC1CC1 [Example C95] | > 0.5 |
| CC[C@H](Nc1cc(NCC2CCOCC2)n2ncc(-c3ccc(C(=O)NC4CC4)c(C)c3)c2n1)C(C)(C)O [Example C127] | 0.1 to 0.5 |
| Cc1cc(-c2cnn3c(NCC4(F)CCN(C)CC4)cc(OC4CCCC4)nc23)ccc1C(=O)NC1CC1 [Example C174] | > 0.5 |
| Cc1cc(-c2cnn3c(NCCCn4ccnc4)cc(N[C@H]4CCCC[C@H]4O)nc23)ccc1C(=O)NC1CC1 [Example C132] | > 0.5 |

Same assay, conditions: OVCAR-3 ovarian cancer cell line; read-out: Cancer Cell Line GI50 Range OVCAR-3

| Structure (SMILES) | GI50 [µM] |
| --- | --- |
| Cc1cc(-c2cnn3c(NC[C@H]4CCCO4)cc(NC4CCCC4)nc23)ccc1C(=O)NC1CC1 [Example C72] | 0.1 to 0.5 |
